Results as given in ChEMBL document CHEMBL4507315 (2021).

Columns and labels:
[1] = biological target: Mitogen-activated protein kinase kinase kinase 11 (Homo sapiens) (UniProt Q16584); details: Compound concentration 100.0 nM
[2] = biological target: Ribosomal protein S6 kinase alpha-2 (Homo sapiens) (UniProt Q15349); details: Compound concentration 100.0 nM
[3] = system: Tyrosine-protein kinase ABL1 (Homo sapiens), P00519 [H396P]; details: Compound concentration 100.0 nM
[4] = biological target: Casein kinase I isoform alpha (Homo sapiens) (UniProt P48729); details: Compound concentration 100.0 nM
[5] = biological target: Dual specificity testis-specific protein kinase 1 (Homo sapiens) (UniProt Q15569); details: Compound concentration 100.0 nM
[6] = biological target: 5-hydroxytryptamine receptor 1B (Homo sapiens) (UniProt P28222); details: Compound concentration 10.0 uM
[7] = biological target: Proto-oncogene tyrosine-protein kinase receptor Ret (Homo sapiens) (UniProt P07949); details: Compound concentration 100.0 nM
[8] = biological target: Phosphatidylinositol 3-kinase C2 domain-containing subunit gamma (Homo sapiens) (UniProt O75747); details: Compound concentration 100.0 nM
[9] = biological target: D(1A) dopamine receptor (Homo sapiens) (UniProt P21728); details: Compound concentration 10.0 uM
[10] = biological target: Mitogen-activated protein kinase 12 (Homo sapiens) (UniProt P53778); details: Compound concentration 100.0 nM
[11] = biological target: Ribosomal protein S6 kinase alpha-6 (Homo sapiens) (UniProt Q9UK32); details: Compound concentration 100.0 nM
[12] = biological target: SNF-related serine/threonine-protein kinase (Homo sapiens) (UniProt Q9NRH2); details: Compound concentration 100.0 nM
[13] = system: Epidermal growth factor receptor (Homo sapiens), P00533 [UNDEFINED MUTATION]; details: Compound concentration 100.0 nM
[14] = biological target: Tyrosine-protein kinase BTK (Homo sapiens) (UniProt Q06187); details: Compound concentration 100.0 nM
[15] = biological target: Receptor-type tyrosine-protein kinase FLT3 (Homo sapiens) (UniProt P36888); details: Compound concentration 100.0 nM
[16] = biological target: Serine/threonine-protein kinase PLK1 (Homo sapiens) (UniProt P53350); details: Compound concentration 100.0 nM
[17] = system: Tyrosine-protein kinase ABL1 (Homo sapiens), P00519 [M351T]; details: Compound concentration 100.0 nM
[18] = biological target: Myosin-IIIb (Homo sapiens) (UniProt Q8WXR4); details: Compound concentration 100.0 nM
[19] = biological target: Mast/stem cell growth factor receptor Kit (Homo sapiens) (UniProt P10721); details: Compound concentration 100.0 nM
[20] = biological target: Leukocyte tyrosine kinase receptor (Homo sapiens) (UniProt P29376); details: Compound concentration 100.0 nM
[21] = biological target: Beta-1 adrenergic receptor (Homo sapiens) (UniProt P08588); details: Compound concentration 10.0 uM
[22] = biological target: Receptor tyrosine-protein kinase erbB-2 (Homo sapiens) (UniProt P04626); details: Compound concentration 100.0 nM
[23] = system: Proto-oncogene tyrosine-protein kinase receptor Ret (Homo sapiens), P07949 [V804L]; details: Compound concentration 100.0 nM
[24] = biological target: Dual serine/threonine and tyrosine protein kinase (Homo sapiens) (UniProt Q6XUX3); details: Compound concentration 100.0 nM
[25] = biological target: Dual specificity mitogen-activated protein kinase kinase 1 (Homo sapiens) (UniProt Q02750); details: Compound concentration 100.0 nM
[26] = biological target: Mitogen-activated protein kinase 8 (Homo sapiens) (UniProt P45983); details: Compound concentration 100.0 nM
[27] = biological target: Serine/threonine-protein kinase N1 (Homo sapiens) (UniProt Q16512); details: Compound concentration 100.0 nM
[28] = biological target: Homeodomain-interacting protein kinase 2 (Homo sapiens) (UniProt Q9H2X6); details: Compound concentration 100.0 nM
[29] = biological target: Serine/threonine-protein kinase D1 (Homo sapiens) (UniProt Q15139); details: Compound concentration 100.0 nM
[30] = system: Epidermal growth factor receptor (Homo sapiens), P00533 [G719S]; details: Compound concentration 100.0 nM
[31] = biological target: Macrophage colony-stimulating factor 1 receptor (Homo sapiens) (UniProt P07333); details: Compound concentration 100.0 nM
[32] = biological target: Serine/threonine-protein kinase 38 (Homo sapiens) (UniProt Q15208); details: Compound concentration 100.0 nM
[33] = biological target: Cyclin-dependent kinase-like 2 (Homo sapiens) (UniProt Q92772); details: Compound concentration 100.0 nM
[34] = biological target: 5-hydroxytryptamine receptor 1A (Homo sapiens) (UniProt P08908); details: Compound concentration 10.0 uM
[35] = system: Tyrosine-protein kinase ABL1 (Homo sapiens), P00519 [Q252H]; details: Compound concentration 100.0 nM
[36] = biological target: TRAF2 and NCK-interacting protein kinase (Homo sapiens) (UniProt Q9UKE5); details: Compound concentration 100.0 nM
[37] = biological target: 5-hydroxytryptamine receptor 5A (Homo sapiens) (UniProt P47898); details: Compound concentration 10.0 uM
[38] = biological target: Serine/threonine-protein kinase PAK 5 (Homo sapiens) (UniProt Q9P286); details: Compound concentration 100.0 nM
[39] = biological target: cGMP-dependent protein kinase 1 (Homo sapiens) (UniProt Q13976); details: Compound concentration 100.0 nM
[40] = biological target: Tyrosine-protein kinase Tec (Homo sapiens) (UniProt P42680); details: Compound concentration 100.0 nM
[41] = biological target: Mitogen-activated protein kinase kinase kinase kinase 2 (Homo sapiens) (UniProt Q12851); details: Compound concentration 100.0 nM
[42] = biological target: Tyrosine-protein kinase Fgr (Homo sapiens) (UniProt P09769); details: Compound concentration 100.0 nM
[43] = biological target: Wee1-like protein kinase (Homo sapiens) (UniProt P30291); details: Compound concentration 100.0 nM
[44] = biological target: Serine/threonine-protein kinase Chk1 (Homo sapiens) (UniProt O14757); details: Compound concentration 100.0 nM
[45] = biological target: Ribosomal protein S6 kinase alpha-3 (Homo sapiens) (UniProt P51812); details: Compound concentration 100.0 nM

Chain of Mitogen-activated protein kinase 12 (Homo sapiens) (P53778 whole entry): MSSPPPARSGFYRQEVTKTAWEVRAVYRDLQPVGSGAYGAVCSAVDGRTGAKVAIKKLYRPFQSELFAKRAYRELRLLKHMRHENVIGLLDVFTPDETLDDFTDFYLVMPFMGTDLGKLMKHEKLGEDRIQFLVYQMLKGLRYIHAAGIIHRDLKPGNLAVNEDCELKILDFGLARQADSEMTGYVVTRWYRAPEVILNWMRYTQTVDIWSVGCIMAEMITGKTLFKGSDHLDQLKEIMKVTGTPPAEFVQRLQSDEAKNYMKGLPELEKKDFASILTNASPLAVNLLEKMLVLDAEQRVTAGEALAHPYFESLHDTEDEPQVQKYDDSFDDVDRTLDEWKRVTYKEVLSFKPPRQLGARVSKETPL
Chain of Ribosomal protein S6 kinase alpha-6 (Homo sapiens) (Q9UK32 whole entry): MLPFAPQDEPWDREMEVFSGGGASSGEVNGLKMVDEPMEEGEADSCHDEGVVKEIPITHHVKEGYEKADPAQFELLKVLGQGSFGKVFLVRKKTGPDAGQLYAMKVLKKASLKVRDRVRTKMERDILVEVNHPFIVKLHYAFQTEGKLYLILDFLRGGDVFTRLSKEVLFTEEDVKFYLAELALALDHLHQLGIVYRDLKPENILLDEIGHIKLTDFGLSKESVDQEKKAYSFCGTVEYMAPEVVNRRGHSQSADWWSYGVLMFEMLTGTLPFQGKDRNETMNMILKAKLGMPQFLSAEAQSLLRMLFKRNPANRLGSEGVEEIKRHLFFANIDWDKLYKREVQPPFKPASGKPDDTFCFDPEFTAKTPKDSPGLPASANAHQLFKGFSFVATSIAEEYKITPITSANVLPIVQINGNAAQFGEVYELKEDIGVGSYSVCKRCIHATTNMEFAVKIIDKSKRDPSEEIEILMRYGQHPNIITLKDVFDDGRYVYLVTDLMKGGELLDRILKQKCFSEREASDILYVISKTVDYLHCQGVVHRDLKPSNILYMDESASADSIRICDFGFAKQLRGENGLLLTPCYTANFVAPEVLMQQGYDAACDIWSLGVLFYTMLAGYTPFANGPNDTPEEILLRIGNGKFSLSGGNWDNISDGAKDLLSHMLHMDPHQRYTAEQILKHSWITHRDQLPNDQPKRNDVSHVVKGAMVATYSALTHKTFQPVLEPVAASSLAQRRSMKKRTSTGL
Chain of Receptor-type tyrosine-protein kinase FLT3 (Homo sapiens) (P36888 whole entry): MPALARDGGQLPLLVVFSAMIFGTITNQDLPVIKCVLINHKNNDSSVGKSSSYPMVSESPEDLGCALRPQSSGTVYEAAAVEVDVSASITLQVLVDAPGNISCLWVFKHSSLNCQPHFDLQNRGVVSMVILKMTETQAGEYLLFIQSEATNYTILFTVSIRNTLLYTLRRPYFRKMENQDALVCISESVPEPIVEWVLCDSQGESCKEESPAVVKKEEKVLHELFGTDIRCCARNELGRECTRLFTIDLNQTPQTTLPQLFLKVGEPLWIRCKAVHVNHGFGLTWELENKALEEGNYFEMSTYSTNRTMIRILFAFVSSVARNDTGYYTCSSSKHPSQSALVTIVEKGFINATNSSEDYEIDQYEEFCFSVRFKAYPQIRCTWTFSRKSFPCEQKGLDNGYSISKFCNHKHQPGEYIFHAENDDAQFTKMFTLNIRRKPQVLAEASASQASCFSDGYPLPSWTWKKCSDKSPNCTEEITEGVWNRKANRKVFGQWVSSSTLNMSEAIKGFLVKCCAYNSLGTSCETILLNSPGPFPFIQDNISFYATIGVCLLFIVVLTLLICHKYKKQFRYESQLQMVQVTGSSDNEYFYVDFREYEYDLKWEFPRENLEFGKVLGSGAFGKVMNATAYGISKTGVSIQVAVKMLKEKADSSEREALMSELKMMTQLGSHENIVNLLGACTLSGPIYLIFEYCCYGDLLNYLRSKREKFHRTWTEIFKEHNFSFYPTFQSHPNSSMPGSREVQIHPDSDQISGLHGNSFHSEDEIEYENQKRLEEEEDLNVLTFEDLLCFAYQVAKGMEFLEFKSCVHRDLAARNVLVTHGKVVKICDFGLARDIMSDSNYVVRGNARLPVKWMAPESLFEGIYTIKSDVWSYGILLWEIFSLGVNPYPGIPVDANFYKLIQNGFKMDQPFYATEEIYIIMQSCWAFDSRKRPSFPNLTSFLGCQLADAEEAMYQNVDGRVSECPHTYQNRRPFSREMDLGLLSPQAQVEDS
Chain of Macrophage colony-stimulating factor 1 receptor (Homo sapiens) (P07333 whole entry): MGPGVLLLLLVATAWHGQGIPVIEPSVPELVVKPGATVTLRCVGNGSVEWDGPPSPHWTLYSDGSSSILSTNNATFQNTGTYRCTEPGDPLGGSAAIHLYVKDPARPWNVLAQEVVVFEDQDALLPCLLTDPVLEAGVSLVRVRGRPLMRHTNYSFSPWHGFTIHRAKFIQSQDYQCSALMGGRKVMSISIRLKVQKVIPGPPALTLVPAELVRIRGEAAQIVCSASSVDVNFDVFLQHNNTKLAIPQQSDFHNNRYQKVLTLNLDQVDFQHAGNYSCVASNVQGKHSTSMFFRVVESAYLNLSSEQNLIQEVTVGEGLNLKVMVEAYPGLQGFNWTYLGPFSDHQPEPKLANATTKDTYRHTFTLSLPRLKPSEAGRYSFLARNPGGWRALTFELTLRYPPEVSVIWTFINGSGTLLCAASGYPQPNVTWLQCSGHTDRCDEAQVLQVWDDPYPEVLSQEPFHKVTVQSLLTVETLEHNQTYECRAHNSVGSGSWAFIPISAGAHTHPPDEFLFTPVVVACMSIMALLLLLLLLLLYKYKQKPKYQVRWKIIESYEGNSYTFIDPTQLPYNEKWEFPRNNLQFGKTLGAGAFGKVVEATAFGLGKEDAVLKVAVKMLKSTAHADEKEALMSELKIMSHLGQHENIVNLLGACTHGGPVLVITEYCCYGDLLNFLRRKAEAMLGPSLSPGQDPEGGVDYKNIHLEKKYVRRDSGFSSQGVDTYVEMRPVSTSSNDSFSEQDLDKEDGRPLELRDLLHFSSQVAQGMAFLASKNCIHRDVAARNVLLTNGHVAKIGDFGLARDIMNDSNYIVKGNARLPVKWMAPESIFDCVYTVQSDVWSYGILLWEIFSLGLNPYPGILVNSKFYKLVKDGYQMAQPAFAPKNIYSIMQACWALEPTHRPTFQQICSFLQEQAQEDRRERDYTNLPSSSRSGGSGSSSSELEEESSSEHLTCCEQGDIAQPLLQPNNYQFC
Chain of Dual serine/threonine and tyrosine protein kinase (Homo sapiens) (Q6XUX3 whole entry): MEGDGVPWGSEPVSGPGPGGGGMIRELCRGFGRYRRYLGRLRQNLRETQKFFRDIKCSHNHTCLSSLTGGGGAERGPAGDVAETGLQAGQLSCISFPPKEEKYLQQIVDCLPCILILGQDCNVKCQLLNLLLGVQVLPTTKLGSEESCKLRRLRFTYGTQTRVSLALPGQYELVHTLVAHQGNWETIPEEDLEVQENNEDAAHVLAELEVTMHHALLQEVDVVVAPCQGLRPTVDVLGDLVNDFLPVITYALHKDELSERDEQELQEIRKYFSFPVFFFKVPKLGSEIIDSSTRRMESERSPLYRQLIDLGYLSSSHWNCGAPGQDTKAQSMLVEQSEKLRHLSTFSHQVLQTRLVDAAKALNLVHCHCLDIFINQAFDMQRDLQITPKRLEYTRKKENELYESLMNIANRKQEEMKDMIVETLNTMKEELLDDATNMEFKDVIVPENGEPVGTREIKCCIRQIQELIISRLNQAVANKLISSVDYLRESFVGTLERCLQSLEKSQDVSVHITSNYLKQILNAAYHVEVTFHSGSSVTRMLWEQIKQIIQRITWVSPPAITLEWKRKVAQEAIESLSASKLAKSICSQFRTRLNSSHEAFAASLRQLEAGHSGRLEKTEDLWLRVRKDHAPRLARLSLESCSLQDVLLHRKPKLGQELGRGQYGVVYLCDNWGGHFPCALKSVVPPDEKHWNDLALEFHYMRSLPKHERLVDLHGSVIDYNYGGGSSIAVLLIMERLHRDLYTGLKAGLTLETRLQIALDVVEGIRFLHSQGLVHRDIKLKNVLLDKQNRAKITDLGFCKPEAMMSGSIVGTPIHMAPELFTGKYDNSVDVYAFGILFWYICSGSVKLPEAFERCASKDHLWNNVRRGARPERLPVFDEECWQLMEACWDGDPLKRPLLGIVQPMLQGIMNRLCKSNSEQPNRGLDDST
Chain of D(1A) dopamine receptor (Homo sapiens) (P21728 whole entry): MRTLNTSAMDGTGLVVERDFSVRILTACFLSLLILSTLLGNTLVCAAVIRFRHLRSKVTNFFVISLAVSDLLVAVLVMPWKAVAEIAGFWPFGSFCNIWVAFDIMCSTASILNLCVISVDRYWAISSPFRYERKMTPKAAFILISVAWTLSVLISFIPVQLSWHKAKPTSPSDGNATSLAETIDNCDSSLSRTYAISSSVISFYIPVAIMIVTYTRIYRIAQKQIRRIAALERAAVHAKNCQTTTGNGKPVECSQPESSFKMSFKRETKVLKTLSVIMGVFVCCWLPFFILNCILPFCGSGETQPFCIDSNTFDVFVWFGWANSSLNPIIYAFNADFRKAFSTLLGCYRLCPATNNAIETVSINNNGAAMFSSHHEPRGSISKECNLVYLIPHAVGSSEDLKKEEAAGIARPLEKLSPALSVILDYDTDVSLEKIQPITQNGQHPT
Chain of 5-hydroxytryptamine receptor 1A (Homo sapiens) (P08908 whole entry): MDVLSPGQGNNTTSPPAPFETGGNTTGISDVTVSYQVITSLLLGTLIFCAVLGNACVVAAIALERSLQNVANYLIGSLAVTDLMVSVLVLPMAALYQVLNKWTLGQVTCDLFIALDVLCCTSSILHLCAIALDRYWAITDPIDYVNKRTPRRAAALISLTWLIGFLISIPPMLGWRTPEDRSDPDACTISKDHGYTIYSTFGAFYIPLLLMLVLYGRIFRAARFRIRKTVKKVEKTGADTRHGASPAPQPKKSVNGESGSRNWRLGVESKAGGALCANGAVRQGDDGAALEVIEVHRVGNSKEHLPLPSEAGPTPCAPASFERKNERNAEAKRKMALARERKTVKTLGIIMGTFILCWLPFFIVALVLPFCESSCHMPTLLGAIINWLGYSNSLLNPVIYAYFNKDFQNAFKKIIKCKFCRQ

Nc1c(C(=O)NCc2ccc(C(=O)NCCCC3CCCCC3)cc2)cnn1-c1ccccc1 [SR-318]
inactive: residual activity [1] 76% | residual activity [2] 90% | residual activity [3] 80% | residual activity [4] 100% | residual activity [5] 100% | inhibition [6] 10.4% | residual activity [7] 89% | residual activity [8] 100% | inhibition [9] -5.64% | residual activity [10] 100% | residual activity [11] 100% | residual activity [12] 91% | residual activity [13] 98% | residual activity [14] 100% | residual activity [15] 90% | residual activity [16] 100% | residual activity [17] 86% | residual activity [18] 100% | residual activity [19] 100% | residual activity [20] 100% | inhibition [21] 25.3% | residual activity [22] 100% | residual activity [23] 100% | residual activity [24] 100% | residual activity [25] 100% | residual activity [26] 100% | residual activity [27] 96% | residual activity [28] 100% | residual activity [29] 100% | residual activity [30] 84% | residual activity [31] 91% | residual activity [32] 96% | residual activity [33] 93% | inhibition [34] -1.43% | residual activity [35] 87% | residual activity [36] 100% | inhibition [37] 9.6% | residual activity [38] 100% | residual activity [39] 74% | residual activity [40] 100% | residual activity [41] 94% | residual activity [42] 100% | residual activity [43] 100% | residual activity [44] 100% | residual activity [45] 92%

O=C(NCCCC1CCCCC1)c1ccc(CNC(=O)c2cnn(-c3ccccc3)c2C(F)(F)F)cc1 [SR-321]
inactive: residual activity [1] 100% | residual activity [2] 96% | residual activity [3] 98% | residual activity [4] 99% | residual activity [5] 100% | inhibition [6] 9.89% | residual activity [7] 89% | residual activity [8] 100% | inhibition [9] 5.56% | residual activity [10] 100% | residual activity [11] 100% | residual activity [12] 100% | residual activity [13] 100% | residual activity [14] 100% | residual activity [15] 87% | residual activity [16] 93% | residual activity [17] 100% | residual activity [18] 100% | residual activity [19] 100% | residual activity [20] 100% | inhibition [21] 21.9% | residual activity [22] 100% | residual activity [23] 100% | residual activity [24] 100% | residual activity [25] 89% | residual activity [26] 99% | residual activity [27] 100% | residual activity [28] 100% | residual activity [29] 100% | residual activity [30] 80% | residual activity [31] 100% | residual activity [32] 93% | residual activity [33] 100% | inhibition [34] 20.1% | residual activity [35] 100% | residual activity [36] 100% | inhibition [37] 17% | residual activity [38] 100% | residual activity [39] 100% | residual activity [40] 94% | residual activity [41] 100% | residual activity [42] 95% | residual activity [43] 97% | residual activity [44] 100% | residual activity [45] 100%
